Data as given in patent US11453660B2, “Androgen receptor and glucocorticoid receptor modulators” (ONCOSTELLAE, S.L., priority 2017, dated 2022).

Target: T1, human androgen receptor (Homo sapiens, UniProt P10275, T878A)
T1 construct: endogenously expressed human androgen receptor using the LnCap prostate cancer cell line; endogenous in cells; host or cells: LNCaP prostate cancer cell line (whole cells)
T1 sequence (P10275 1-920 T878A): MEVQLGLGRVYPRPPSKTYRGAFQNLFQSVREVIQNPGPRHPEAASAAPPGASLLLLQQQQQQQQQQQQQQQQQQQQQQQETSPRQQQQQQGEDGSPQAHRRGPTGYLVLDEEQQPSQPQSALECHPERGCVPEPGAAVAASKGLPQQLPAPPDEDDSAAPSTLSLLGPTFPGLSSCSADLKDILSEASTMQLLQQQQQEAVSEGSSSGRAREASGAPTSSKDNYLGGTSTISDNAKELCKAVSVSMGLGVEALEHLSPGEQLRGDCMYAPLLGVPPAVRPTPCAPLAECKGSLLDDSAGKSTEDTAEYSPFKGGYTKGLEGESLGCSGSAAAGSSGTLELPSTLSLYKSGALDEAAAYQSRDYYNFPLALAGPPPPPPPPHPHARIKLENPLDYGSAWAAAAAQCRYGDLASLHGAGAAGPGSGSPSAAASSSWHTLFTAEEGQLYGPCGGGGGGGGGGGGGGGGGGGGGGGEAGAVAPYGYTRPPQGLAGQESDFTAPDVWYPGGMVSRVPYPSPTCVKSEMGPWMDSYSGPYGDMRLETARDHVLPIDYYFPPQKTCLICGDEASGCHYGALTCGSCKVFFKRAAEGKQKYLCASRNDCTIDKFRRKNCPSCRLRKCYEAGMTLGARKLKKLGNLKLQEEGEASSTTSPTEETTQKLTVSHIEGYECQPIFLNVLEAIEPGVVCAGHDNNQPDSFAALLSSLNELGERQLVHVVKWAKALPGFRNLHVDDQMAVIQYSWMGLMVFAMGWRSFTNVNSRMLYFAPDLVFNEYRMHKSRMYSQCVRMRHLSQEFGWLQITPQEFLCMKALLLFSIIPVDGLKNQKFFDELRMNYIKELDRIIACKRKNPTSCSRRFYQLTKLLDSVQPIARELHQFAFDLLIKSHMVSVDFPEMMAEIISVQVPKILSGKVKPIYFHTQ
Assay: Human Androgen Receptor Binding (radioligand binding, LnCap prostate cancer cell line)
Conditions: LnCap cells, displacement of [^3H]-methyltrienolone, 2 hours at 37° C.; read-out: AR LNCaP
Outline: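 Whole-cell displacement of [3H]-methyltrienolone from endogenous AR (T878A) in LnCap cells, in RPMI with 0.1% BSA and triamcinolone acetonide. Compounds 10 μM to 0.1 nM in 1:10 steps, 2 h at 37 °C; cells washed, SDS-lysed, bound radioactivity by scintillation counting for IC50.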

Row | IC50 [µM] | Compound
1 | < 0.1 | CC(=O)C1=C(C)NC(C)=C(C(=O)OCc2cccc(-c3cccnc3)c2)C1c1csc2ncccc12 (stereo not shown) [Example L4, 3-(pyridin-3-yl)benzyl 5-acetyl-2,6-dimethyl-4-(thieno[2,3-b]pyridin-3-yl)-1,4-dihydropyridine-3-carboxylate]
2 | ≥ 1 | CC(=O)C1=C(C)NC(C)=C(C(=O)OCc2ccc(Br)cc2)C1c1csc2ncccc12 (stereo not shown) [Example C65, 4-bromobenzyl 5-acetyl-2,6-dimethyl-4-(thieno[2,3-b]pyridin-3-yl)-1,4-dihydropyridine-3-carboxylate]
3 | ≥ 1 | COC(=O)C1=C(C)NC(C=O)=C(C(=O)OC)C1c1csc2c(C#N)cccc12 (stereo not shown) [Example C119, Dimethyl 4-(7-cyanobenzo[b]thiophen-3-yl)-2-formyl-6-methyl-1,4-dihydropyridine-3,5-dicarboxylate]
4 | 0.1 to 1 | CC(=O)C1=C(C)NC(C)=C(C(=O)OC2CCCCC2)C1c1csc2ncccc12 (stereo not shown) [Example C36, Cyclohexyl 5-acetyl-2,6-dimethyl-4-(thieno[2,3-b]pyridin-3-yl)-1,4-dihydropyridine-3-carboxylate]
5 | ≥ 1 | CC(=O)C1=C(C)NC(C)=C(C(=O)OCc2ccc(-c3cccnc3)cc2)C1c1csc2ncccc12 (stereo not shown) [Example L2, 4-(pyridin-3-yl)benzyl 5-acetyl-2,6-dimethyl-4-(thieno[2,3-b]pyridin-3-yl)-1,4-dihydropyridine-3-carboxylate]
6 | 0.1 to 1 | CC(=O)C1=C(C)NC(C)=C(C(=O)OCc2ccccc2)C1c1csc2ncccc12 (stereo not shown) [Example C39, Benzyl 5-acetyl-2,6-dimethyl-4-(thieno[2,3-b]pyridin-3-yl)-1,4-dihydropyridine-3-carboxylate]
7 | ≥ 1 | CC(=O)C1=C(C)NC(C)=C(C(=O)OCC2CCOCC2)C1c1csc2ccc(Cl)cc12 (stereo not shown) [Example C43, (Tetrahydro-2H-pyran-4-yl)methyl 5-acetyl-4-(5-chlorobenzo[b]thiophen-3-yl)-2,6-dimethyl-1,4-dihydropyridine-3-carboxylate]
8 | ≥ 1 | CC(=O)C1=C(C)NC(C)=C(C(=O)OCc2ccccc2)C1c1csc2ccc(F)cc12 (stereo not shown) [Example C41, Benzyl 5-acetyl-4-(5-fluorobenzo[b]thiophen-3-yl)-2,6-dimethyl-1,4-dihydropyridine-3-carboxylate]
9 | 0.1 to 1 | CC1=C(C#N)C(c2csc3c(C#N)cccc23)C(C(=O)OCC2CC2)=C(N)N1 (stereo not shown) [Example D24, cyclopropylmethyl 2-amino-5-cyano-4-(7-cyanobenzo[b]thiophen-3-yl)-6-methyl-1,4-dihydropyridine-3-carboxylate]
10 | < 0.1 | CC(=O)C1=C(C)NC(C)=C(C(=O)OCc2cccnc2)C1c1csc2c(Br)cccc12 (stereo not shown) [Example C58, Pyridin-3-ylmethyl 5-acetyl-4-(7-bromobenzo[b]thiophen-3-yl)-2,6-dimethyl-1,4-dihydropyridine-3-carboxylate]
11 | 0.1 to 1 | CC(=O)C1=C(C)NC(C2CC2)=C(C(=O)OCc2ccc(F)cc2)C1c1csc2ncccc12 (stereo not shown) [Example J42, 4-fluorobenzyl 5-acetyl-2-cyclopropyl-6-methyl-4-(thieno[2,3-b]pyridin-3-yl)-1,4-dihydropyridine-3-carboxylate]
12 | 0.1 to 1 | COC(=O)C1=C(C)NC(N)=C(C(=O)OCC(C)(C)C)C1c1csc2c(C#N)cccc12 (stereo not shown) [Example D43, 5-Methyl 3-neopentyl 2-amino-4-(7-cyanobenzo[b]thiophen-3-yl)-6-methyl-1,4-dihydropyridine-3,5-dicarboxylate]
13 | ≥ 1 | CC(=O)C1=C(C)NC(C)=C(C(=O)OCc2ccc(C#N)cc2)C1c1csc2ncccc12 (stereo not shown) [Example C73, 4-cyanobenzyl 5-acetyl-2,6-dimethyl-4-(thieno[2,3-b]pyridin-3-yl)-1,4-dihydropyridine-3-carboxylate]
14 | 0.1 to 1 | CC(=O)C1=C(C)NC(N)=C(C(=O)OCc2cccc(F)c2)C1c1csc2c(C#N)cccc12 (stereo not shown) [Example D32, 3-Fluorobenzyl 5-acetyl-2-amino-4-(7-cyanobenzo[b]thiophen-3-yl)-6-methyl-1,4-dihydropyridine-3-carboxylate]
15 | ≥ 1 | CC1=C(C(=O)OCC2CC2)C(c2csc3c(C#N)cccc23)C(C(=O)OCC2CC2)=C(N)N1 (stereo not shown) [Example D46, Bis(cyclopropylmethyl) 2-amino-4-(7-cyanobenzo[b]thiophen-3-yl)-6-methyl-1,4-dihydropyridine-3,5-dicarboxylate]
16 | ≥ 1 | CC(=O)C1=C(C)NC(C)=C(C(=O)OC(C)(C)c2ccccc2)C1c1csc2ncccc12 (stereo not shown) [Example C71, 2-phenylpropan-2-yl 5-acetyl-2,6-dimethyl-4-(thieno[2,3-b]pyridin-3-yl)-1,4-dihydropyridine-3-carboxylate]
17 | 0.1 to 1 | COC(=O)C1=C(C)NC(N)=C(C(=O)OCC2CC2)C1c1csc2c(C#N)cc(F)cc12 (stereo not shown) [Example D39, 3-(Cyclopropylmethyl) 5-methyl 2-amino-4-(7-cyano-5-fluorobenzo[b]thiophen-3-yl)-6-methyl-1,4-dihydropyridine-3,5-dicarboxylate]
18 | < 0.1 | CC(=O)C1=C(C)NC(C)=C(C(=O)OCc2cccc(-c3ccncc3)c2)C1c1csc2ncccc12 (stereo not shown) [Example L3, 3-(pyridin-4-yl)benzyl 5-acetyl-2,6-dimethyl-4-(thieno[2,3-b]pyridin-3-yl)-1,4-dihydropyridine-3-carboxylate]
19 | 0.1 to 1 | CC1=C(C(=O)OC2CC2)C(c2csc3c(C#N)cccc23)C(C(=O)OCC2CC2)=C(N)N1 (stereo not shown) [Example D37, 5-Cyclopropyl 3-(cyclopropylmethyl) 2-amino-4-(7-cyanobenzo[b]thiophen-3-yl)-6-methyl-1,4-dihydropyridine-3,5-dicarboxylate]
20 | 0.1 to 1 | CC(=O)C1=C(C)NC(C)=C(C(=O)OCc2cccc(Br)c2)C1c1csc2ncccc12 (stereo not shown) [Example C66, 3-bromobenzyl 5-acetyl-2,6-dimethyl-4-(thieno[2,3-b]pyridin-3-yl)-1,4-dihydropyridine-3-carboxylate]
21 | 0.1 to 1 | COC(=O)C1=C(C=O)NC(C2CC2)=C(C(=O)OC)C1c1csc2c(C#N)cccc12 (stereo not shown) [Example C117, Dimethyl 4-(7-cyanobenzo[b]thiophen-3-yl)-2-cyclopropyl-6-formyl-1,4-dihydropyridine-3,5-dicarboxylate]
22 | 0.1 to 1 | CC1=C(C(=O)C2CC2)C(c2csc3c(C#N)cccc23)C(C(=O)OCC2CC2)=C(N)N1 (stereo not shown) [Example D31, Cyclopropylmethyl 2-amino-4-(7-cyanobenzo[b]thiophen-3-yl)-5-(cyclopropanecarbonyl)-6-methyl-1,4-dihydropyridine-3-carboxylate]
23 | < 0.1 | CC(=O)C1=C(C)NC(C2CC2)=C(C(=O)OCc2ccncc2)C1c1csc2c(Br)cccc12 (stereo not shown) [Example J41, Pyridin-4-ylmethyl 5-acetyl-4-(7-bromobenzo[b]thiophen-3-yl)-2-cyclopropyl-6-methyl-1,4-dihydropyridine-3-carboxylate]
24 | 0.1 to 1 | CC(=O)C1=C(C)NC(N)=C(C(=O)OCC2CCCCC2)C1c1csc2c(C#N)cccc12 (stereo not shown) [Example D30, Cyclohexylmethyl 5-acetyl-2-amino-4-(7-cyanobenzo[b]thiophen-3-yl)-6-methyl-1,4-dihydropyridine-3-carboxylate]
25 | 0.1 to 1 | CC(=O)C1=C(C)NC(C)=C(C(=O)OCc2ccncc2)C1c1csc2ccc(F)cc12 (stereo not shown) [Example C46, Pyridin-4-ylmethyl 5-acetyl-4-(5-fluorobenzo[b]thiophen-3-yl)-2,6-dimethyl-1,4-dihydropyridine-3-carboxylate]
26 | 0.1 to 1 | C#CCOC(=O)C1=C(C)NC(N)=C(C(=O)OCC2CC2)C1c1csc2c(C#N)cccc12 (stereo not shown) [Example D47, 3-(Cyclopropylmethyl) 5-(prop-2-yn-1-yl) 2-amino-4-(7-cyanobenzo[b]thiophen-3-yl)-6-methyl-1,4-dihydropyridine-3,5-dicarboxylate]
27 | 0.1 to 1 | COC(=O)C1=C(C)NC(N)=C(C(=O)OC(C)C)C1c1csc2c(C#N)cccc12 (stereo not shown) [Example D41, 3-Isopropyl 5-methyl 2-amino-4-(7-cyanobenzo[b]thiophen-3-yl)-6-methyl-1,4-dihydropyridine-3,5-dicarboxylate]
28 | ≥ 1 | CC(=O)C1=C(C)NC(C)=C(C(=O)OCC2CCOCC2)C1c1csc2ccc(F)cc12 (stereo not shown) [Example C44, (Tetrahydro-2H-pyran-4-yl)methyl 5-acetyl-4-(5-fluorobenzo[b]thiophen-3-yl)-2,6-dimethyl-1,4-dihydropyridine-3-carboxylate]
